The values below come from patent US8729047B2, “Compositions for inhibiting redox-sensitive GTPases” (Board of Regents, The University of Texas System, priority 2010, dated 2014).

Where two headings read alike, the source gives them in different places.

In series [1] the target is T1, RhoA (Homo sapiens, UniProt P61586).
T1 construct: made in house; host or cells: E. coli
The experiment in a line: Competitive binding assay, [3H]GDP-loaded Rho protein titrated with 6-TGDP (FIG. 16A). As for the experimental part:
FIG. 16. Kinetic properties of RhoC with 6-TGDP in the presence or absence of a redox agent. All kinetic analyses are described elsewhere herein. (A) ^appKD values of Rac1, RhoA, RhoC, and RhoC C20S for 6-TGDP were estimated to be 7.9, 11.6, 11.8, and 11.2 μM, respectively. ^trueKD values of Rac1, RhoA, and RhoC for 6-TGDP were then calculated to be 5.1, 10.8, 11.1, and 10.5 μM, respectively, by using a compensation equation, ^trueKD for 6-TGDP=^appKD for 6-TGDP/(1+[[^3H]GDP]/^trueKD for GDP) (Heo, J., and Hong, I. (2010) Biochemistry 49, 3965-3976), in conjunction with the values given. […] The GDP dissociation rates from RhoC C20S by NO, .NO2, and N2O3 were estimated to be 0.02×10^−3, 0.05×10^−3, and 0.04×10^−3 s^−1, respectively. […] (D) ^appKD values of RhoC for [^3H]GDP in the presence or absence of DTT were estimated to be 22.4 μM and […], respectively. ^appKD values of C20S RhoC for [^3H]GDP in the presence or absence of DTT were determined to be 24.8 μM and 25.2 μM, respectively. […]
(a) A competitive binding assay was performed to determine the binding affinity of Rho GTPase and 6-TGDP. […] Each membrane was washed three times with the assay buffer, and radioactivity was determined using a Beckman-Coulter scintillation counter. The radioactivity of the sample (Rho protein-bound [^3H]GDP) was converted into, and thus plotted, as the fraction of mol GDP per mol total Rho protein. […]

Series [2] deals with Rac1 (Homo sapiens, UniProt P63000). Described as above. The arrangement: made in house; host or cells: E. coli. The procedure:
FIG. 16. Kinetic properties of RhoC with 6-TGDP in the presence or absence of a redox agent. All kinetic analyses are described elsewhere herein. (A) ^appKD values of Rac1, RhoA, RhoC, and RhoC C20S for 6-TGDP were estimated to be 7.9, 11.6, 11.8, and 11.2 μM, respectively. ^trueKD values of Rac1, RhoA, […] for 6-TGDP were then calculated to be 5.1, 10.8, 11.1, and 10.5 μM, respectively, by using a compensation equation, ^trueKD for 6-TGDP=^appKD for 6-TGDP/(1+[[^3H]GDP]/^trueKD for GDP) (Heo, J., and Hong, I. (2010) Biochemistry 49, 3965-3976), in conjunction with the values given. […] The GDP dissociation rates from RhoC C20S by NO, .NO2, and N2O3 were estimated to be 0.02×10^−3, 0.05×10^−3, and 0.04×10^−3 s^−1, respectively. […] (D) ^appKD values of RhoC for [^3H]GDP in the presence or absence of DTT were estimated to be 22.4 μM and […], respectively. ^appKD values of C20S RhoC for [^3H]GDP in the presence or absence of DTT were determined to be 24.8 μM and 25.2 μM, respectively. The regression values associated with these fits were >0.8595. All data points associated with vertical standard error bars shown in this figure are the mean values of triplicate measurements.
Transition metal-free assay buffer and vials as described in a previous study (Heo et al. Biochemistry 49, 3965-3976 (2010)) were used for all kinetic assays. The kinetic assay buffer contains the highest grade of 50 mM NaCl, 10 mM MgCl2, 1 mM EDTA, and 0.1 mM DTPA in 50 mM TrisHCl (pH 7.4). Before performance of any of the assays, all protein samples also were dialyzed with a metal-free buffer under anaerobic conditions. As with RhoA and Rac1 (Heo et al. J. Biol. Chem. 280, 31003-31010 (2005)), C20S RhoC were expressed in E. coli and purified using anionic and size exclusion columns.
(a) A competitive binding assay was performed to determine the binding affinity of Rho GTPase and 6-TGDP. The radiolabeled [^3H]GDP-loaded Rho protein (1 μM) was titrated with various concentrations of 6-TGDP. The titrated Rho protein sample then was spotted onto a nitrocellulose membrane. Each membrane was washed three times with the assay buffer, and radioactivity was determined using a Beckman-Coulter scintillation counter. The radioactivity of the sample (Rho protein-bound [^3H]GDP) was converted into, and thus plotted, as the fraction of mol GDP per mol total Rho protein. The apparent dissociation constant (^appKD) of the Rho protein with [^3H]GDP in the presence of 6-TGDP was determined by using Prism software to fit the titration curve to a hyperbola.

For series [3], the system named is A7r5 cells. The experiment in a line: Viability / cytotoxicity of A7r5 cells. It counts as cell-based, rat. To be noted: 5 days of treatment; FIG. 24. An excerpt:
FIG. 24. Effects of 6- and 8-TG on A7r5 cells. Treatment of cells with 6- or 8-TG is described in FIGS. 19 and 21. The image associated with the effect of 6- or 8-TG was taken after 5 days of treatment.

In series [4] the target is RhoC (Homo sapiens, UniProt P08134). The experiment in a line: Titration of .NO2-treated RhoC-6-TGDP complex with [3H]GDP with/without DTT (FIG. 16D). It counts as binding. Also on record: made in house; host or cells: E. coli. To be noted: presence of DTT; .NO2-pretreated 6-TGDP-loaded RhoC; read-out: appKD for [3H]GDP. As for the experimental part:
FIG. 16. Kinetic properties of RhoC with 6-TGDP in the presence or absence of a redox agent. All kinetic analyses are described elsewhere herein. (A) ^appKD values of Rac1, RhoA, RhoC, and RhoC C20S for 6-TGDP were estimated to be 7.9, 11.6, 11.8, and 11.2 μM, respectively. ^trueKD values of Rac1, RhoA, and RhoC for 6-TGDP were then calculated to be 5.1, 10.8, 11.1, and 10.5 μM, respectively, by using a compensation equation, ^trueKD for 6-TGDP=^appKD for 6-TGDP/(1+[[^3H]GDP]/^trueKD for GDP) (Heo, J., and Hong, I. (2010) Biochemistry 49, 3965-3976), in conjunction with the values given. […] The GDP dissociation rates from RhoC C20S by NO, .NO2, and N2O3 were estimated to be 0.02×10^−3, 0.05×10^−3, and 0.04×10^−3 s^−1, respectively. […] (D) ^appKD values of RhoC for [^3H]GDP in the presence or absence of DTT were estimated to be 22.4 μM and […], respectively. ^appKD values of C20S RhoC for [^3H]GDP in the presence or absence of DTT were determined to be 24.8 μM and 25.2 μM, respectively. The regression values associated with these fits were >0.8595. […]
(d) The effect of .NO2 on the dissociation of 6-TGDP from RhoC was determined by treating the RhoC-6-TGDP complex titration with various concentrations of [^3H]GDP in the presence and absence of a reducing agent of either dithiothreitol (DTT) or β-mercaptoethanol. […]

Where [5] appears, read: [3H]GDP-loaded Rho protein 1 μM titrated with 6-TGDP, read-out: appKD for 6-TGDP.
The mark [6] stands for this setting: calculated by compensation equation, read-out: trueKD for 6-TGDP.

T1 sequence (P61586 whole entry, species assumed): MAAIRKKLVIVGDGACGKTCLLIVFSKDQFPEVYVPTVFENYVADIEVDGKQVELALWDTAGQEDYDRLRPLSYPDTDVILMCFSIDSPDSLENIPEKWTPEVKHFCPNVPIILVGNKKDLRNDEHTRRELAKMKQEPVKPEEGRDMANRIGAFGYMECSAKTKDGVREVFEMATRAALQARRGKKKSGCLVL
Sequence of RhoC (P08134 whole entry): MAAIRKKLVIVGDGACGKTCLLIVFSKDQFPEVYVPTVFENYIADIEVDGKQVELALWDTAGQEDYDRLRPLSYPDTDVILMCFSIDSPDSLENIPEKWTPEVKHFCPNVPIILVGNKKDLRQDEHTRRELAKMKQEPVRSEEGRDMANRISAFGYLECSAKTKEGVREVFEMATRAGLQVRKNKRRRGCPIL

With `Nc1nc2c(ncn2[C@@H]2O[C@H](COP(=O)(O)OP(=O)(O)O)[C@@H](O)[C@H]2O)c(=S)[nH]1` [6-TGDP, 6-thioguanosine diphosphate], the Kd was 11.6 µM in series [1] (setting [5]), 10.8 µM in series [1] (setting [6]), 7.9 µM in series [2] (setting [5]) and 5.1 µM in series [2] (setting [6]).
Consider `Nc1nc2[nH]c(S)nc2c(=O)[nH]1` [8-TG, 2-amino-8-mercapto-1H-purin-6(9H)-one], for which the “viability / cytotoxicity of A7r5 cells” value in series [3] was “did not alter the viability”.
`Nc1nc2c(ncn2[C@@H]2O[C@H](COP(=O)(O)OP(=O)(O)O)[C@@H](O)[C@H]2O)c(=O)[nH]1` [GDP]: the Kd in series [4] turned out to be 22.4 µM.
